Experimental data published in patent publication US11033539B2, “Compounds of formulas (VII), (VIII), (IX), (XI), (XII), (XIII), and (XIV) as muscarinic receptor 4(M4) antagonists for treating neurological diseases” (Neurocrine Biosciences, Inc., priority 2015, dated 2021).

These compounds were tested against human M4 receptor (Homo sapiens (Human), UniProt P08173) (assay: Radioligand (tritiated N-methylscopolamine) binding assay, M4). Settings: Ki against the M4 receptor; membranes from CHO cells expressing human M4; tritiated N-methylscopolamine 1.5 nM; read-out: Ki.
Chain of human M4 receptor (P08173 whole entry): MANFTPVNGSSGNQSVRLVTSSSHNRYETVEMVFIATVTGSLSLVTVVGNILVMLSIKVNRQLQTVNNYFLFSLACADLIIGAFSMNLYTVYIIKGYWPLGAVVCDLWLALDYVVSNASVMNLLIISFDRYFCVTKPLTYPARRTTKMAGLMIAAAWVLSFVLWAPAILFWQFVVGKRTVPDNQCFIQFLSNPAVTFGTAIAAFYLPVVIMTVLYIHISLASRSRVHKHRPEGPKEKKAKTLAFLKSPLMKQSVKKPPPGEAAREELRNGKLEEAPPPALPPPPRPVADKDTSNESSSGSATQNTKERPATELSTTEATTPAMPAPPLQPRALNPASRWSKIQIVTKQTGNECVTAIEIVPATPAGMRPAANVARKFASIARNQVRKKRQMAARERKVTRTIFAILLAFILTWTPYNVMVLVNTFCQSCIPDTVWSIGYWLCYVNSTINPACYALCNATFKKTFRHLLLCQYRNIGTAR
How it was run: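 CHO membranes; 1.5 nM radioligand; 12-point compound dose-response, 10 μM to […]; HEPES/NaCl/MgCl2/EDTA buffer pH 7.4; 90 min, 37 °C. PEI-treated glass fiber filtration, radioactivity counting. Ki from inhibition of binding.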

Compound	Ki
O=C(NCCC1(CO)CCN(Cc2ccccc2)CC1)C1CCN(c2ccc(OC(F)(F)F)cc2)CC1 [9-13, N-{2-[1-benzyl-4-(hydroxymethyl)piperidin-4-yl]ethyl}-1-[4-(trifluoromethoxy)phenyl]piperidine-4-carboxamide]	10 to 100 nM
O=C(NCCC1CCN(Cc2ccccc2)CC1)N1CCN(c2cccc(C(F)(F)F)c2)CC1 [8-17, N-[2-(1-benzylpiperidin-4-yl)ethyl]-4-[3-(trifluoromethyl)phenyl]piperazine-1-carboxamide]	10 to 100 nM
COc1cccc(CN2CCC(CCNC(=O)c3cnc4cc(-c5ccccc5)nn4c3C)CC2)c1 [19-7]	100 to 1000 nM
O=C(c1ccc(-c2cccs2)cc1)N(C1CC1)C1CCN(Cc2ccccc2)CC1 [9-53, N-(1-benzylpiperidin-4-yl)-N-cyclopropyl-4-(thiophen-2-yl)benzamide]	100 to 1000 nM
CN(CCNC(=O)C1CCN(c2cccc(OC(F)(F)F)c2)CC1)[C@H]1CCN(Cc2ccccc2)C1 [9-31, N-(2-{[(3S)-1-benzylpyrrolidin-3-yl](methyl)amino}ethyl)-1-[3-(trifluoromethoxy)phenyl]piperidine-4-carboxamide]	10 to 100 nM
O=C(NCCC1CCN(Cc2ccccc2)CC1)C1CCN(c2cccc3c2OC(F)(F)O3)CC1 [10-45, N-[2-(1-benzylpiperidin-4-yl)ethyl]-1-(2,2-difluoro-2H-1,3-benzodioxol-4-yl)piperidine-4-carboxamide]	10 to 100 nM
COc1ccc(-c2cc(C(F)(F)F)n3nc(C(=O)NCCC4CCN(Cc5ccccc5)CC4)cc3n2)cc1 [9-59, N-[2-(1-benzylpiperidin-4-yl)ethyl]-5-(4-methoxyphenyl)-7-(trifluoromethyl)pyrazolo[1,5-a]pyrimidine-2-carboxamide]	100 to 1000 nM
C[C@@H]1CN(c2cc(F)c(F)c(F)c2)CCN1C(=O)NCCN1CCC(O)(Cc2ccccc2)CC1 [7-7, (2R)-N-[2-(4-benzyl-4-hydroxypiperidin-1-yl)ethyl]-2-methyl-4-(3,4,5-trifluorophenyl)piperazine-1-carboxamide]	100 to 1000 nM
C[C@@H]1CN(c2ccc(F)c(C#N)c2)CCN1C(=O)N(C)CCC1CCN(Cc2ccccc2)CC1 [3-4, (2R)-N-[2-(1-benzylpiperidin-4-yl)ethyl]-4-(3-cyano-4-fluorophenyl)-N,2-dimethylpiperazine-1-carboxamide]	100 to 1000 nM
O=C(c1ccn2cc(-c3ccc(OC(F)(F)F)cc3)nc2c1)N(C1CC1)C1CCN(Cc2ccccc2)CC1 [9-48, N-(1-benzylpiperidin-4-yl)-N-cyclopropyl-2-[4-(trifluoromethoxy)phenyl]imidazo[1,2-a]pyridine-7-carboxamide]	100 to 1000 nM
CC(C)NC(=O)c1cnc(N2CCN(C(=O)NCCC3CCN(Cc4ccccc4)CC3)[C@H](C)C2)nc1 [27-15]	100 to 1000 nM
Cc1cc(C(=O)NC2CC2)nc(N2CCN(C(=O)NCCC3CCN(Cc4ccccc4)CC3)[C@H](C)C2)n1 [27-14]	100 to 1000 nM
C[C@@H]1CN(c2ncc(C#N)cn2)C[C@H](C)N1C(=O)NCCC1CCN(CCc2ccccc2)CC1 [6-44, (2R,6S)-4-(5-cyanopyrimidin-2-yl)-2,6-dimethyl-N-{2-[1-(2-phenylethyl)piperidin-4-yl]ethyl}piperazine-1-carboxamide]	100 to 1000 nM
CC(C)CN1CCC(CCNC(=O)N2[C@H](C)CN(c3ncc(C#N)cn3)C[C@@H]2C)CC1 [21-6]	100 to 1000 nM
N#Cc1cc(N2CCN(C(=O)NCCC3CCN(Cc4ccccc4)CC3)CC2)ccc1F [8-22, N-[2-(1-benzylpiperidin-4-yl)ethyl]-4-(3-cyano-4-fluorophenyl)piperazine-1-carboxamide]	100 to 1000 nM
O=C(NCCC1CCN(Cc2ccccc2)CC1O)C1CCN(c2ccc(OC(F)(F)F)cc2)CC1 (stereo not drawn) [9-27, N-[2-(1-benzyl-3-hydroxypiperidin-4-yl)ethyl]-1-[4-(trifluoromethoxy)phenyl]piperidine-4-carboxamide]	10 to 100 nM
N-(2-{1-[(4-hydroxyphenyl)methyl]piperidin-4-yl}ethyl)-4-phenoxybenzamide [11-10]	100 to 1000 nM
C[C@@H]1CN(c2ncc(C(=O)N3CCCC3)cn2)C[C@H](C)N1C(=O)NCCC1CCN(Cc2ccccc2)CC1 [27-2]	100 to 1000 nM
N#Cc1ccc(N2CCC(C(=O)NCCC3CCN(Cc4ccc5[nH]ccc5c4)CC3)CC2)nc1 [6-11, 1-(5-cyanopyridin-2-yl)-N-{2-[1-(1H-indol-5-ylmethyl)piperidin-4-yl]ethyl}piperidine-4-carboxamide]	10 to 100 nM
O=C(OCCC1CCN(Cc2ccccc2)CC1)N1CCC(O)(c2ccccc2)CC1 [12-7, 2-(1-benzylpiperidin-4-yl)ethyl 4-hydroxy-4-phenylpiperidine-1-carboxylate]	100 to 1000 nM

Compound	Ki
C[C@@H]1CN(c2ncc(C(=O)N(C)C)cn2)CCN1C(=O)NCCC1CCN(Cc2ccccc2)CC1 [27-17]	100 to 1000 nM
C[C@@H]1CN(c2cc(F)c(F)c(F)c2)CCN1C(=O)NCCC1CCN(Cc2ccccn2)CC1 [6-7, (2R)-2-methyl-N-{2-[1-(pyridin-2-ylmethyl)piperidin-4-yl]ethyl}-4-(3,4,5-trifluorophenyl)piperazine-1-carboxamide]	10 to 100 nM
N#Cc1cc(C(F)(F)F)ccc1N1CCN(C(=O)NCCC2CCN(Cc3ccccc3)CC2)CC1 [8-12, N-[2-(1-benzylpiperidin-4-yl)ethyl]-4-[2-cyano-4-(trifluoromethyl)phenyl]piperazine-1-carboxamide]	10 to 100 nM
C[C@@H]1CN(c2cc(F)c(F)c(F)c2)CCN1C(=O)NCCC1CCN(Cc2ccc(C#N)cc2F)CC1 [6-30, (2R)-N-(2-{1-[(4-cyano-2-fluorophenyl)methyl]piperidin-4-yl}ethyl)-2-methyl-4-(3,4,5-trifluorophenyl)piperazine-1-carboxamide]	100 to 1000 nM
C[C@@H]1CN(c2ncc(C(F)(F)F)cn2)CCN1C(=O)NCCC1CCN(Cc2ccccc2C#N)CC1 [6-34, (2R)-N-(2-{1-[(2-cyanophenyl)methyl]piperidin-4-yl}ethyl)-2-methyl-4-[5-(trifluoromethyl)pyrimidin-2-yl]piperazine-1-carboxamide]	100 to 1000 nM
O=C(NCCC1CCN(Cc2ccccc2)CC1)C1CCN(c2nccc(C(F)(F)F)n2)CC1 [10-30, N-[2-(1-benzylpiperidin-4-yl)ethyl]-1-[4-(trifluoromethyl)pyrimidin-2-yl]piperidine-4-carboxamide]	10 to 100 nM
CN(CCC1CC[N+](C)(Cc2ccccc2)CC1)C(=O)C1CCN(c2ccc(OC(F)(F)F)cc2)CC1 (stereo not drawn) [9-42, 1-benzyl-1-methyl-4-[2-(N-methyl-1-{1-[4-(trifluoromethoxy)phenyl]piperidin-4-yl}formamido)ethyl]piperidin-1-ium]	100 to 1000 nM
CN(C1CCN(C(=O)C2CCN(c3ccc(OC(F)(F)F)cc3)CC2)CC1)[C@@H]1CCN(Cc2ccccc2)C1 [9-33, N-[(3R)-1-benzylpyrrolidin-3-yl]-N-methyl-1-{1-[4-(trifluoromethoxy)phenyl]piperidine-4-carbonyl}piperidin-4-amine]	10 to 100 nM
COC(=O)c1cc(C)nc(N2CCN(C(=O)NCCC3CCN(Cc4ccccc4)CC3)[C@H](C)C2)n1 [5-12, methyl 2-[(3R)-4-{[2-(1-benzylpiperidin-4-yl)ethyl]carbamoyl}-3-methylpiperazin-1-yl]-6-methylpyrimidine-4-carboxylate]	100 to 1000 nM
C[C@@H]1CN(c2ncc(C(F)(F)F)cn2)C[C@@H](C)N1C(=O)NCCC1CCN(Cc2ccccc2)CC1 [26-5, (2R,6R)-N-[2-(1-benzylpiperidin-4-yl)ethyl]-2,6-dimethyl-4-[5-(trifluoromethyl)pyrimidin-2-yl]piperazine-1-carboxamide]	< 10 nM
C[C@@H]1CN(c2ccc(F)c(C#N)c2)CCN1C(=O)N(C)C[C@@H](O)C1CCN(Cc2ccccc2)CC1 [3-3, (2R)-N-[(2S)-2-(1-benzylpiperidin-4-yl)-2-hydroxyethyl]-4-(3-cyano-4-fluorophenyl)-N,2-dimethylpiperazine-1-carboxamide]	100 to 1000 nM
CC1(C(=O)NCCC2CCN(Cc3ccccc3)CC2)CCN(c2ccc(OC(F)(F)F)cc2)CC1 [10-31, N-[2-(1-benzylpiperidin-4-yl)ethyl]-4-methyl-1-[4-(trifluoromethoxy)phenyl]piperidine-4-carboxamide]	10 to 100 nM
Nc1nc(N2CCN(C(=O)NCCC3CCN(Cc4ccccc4)CC3)CC2)ncc1Cl [5-33, 4-(4-amino-5-chloropyrimidin-2-yl)-N-[2-(1-benzylpiperidin-4-yl)ethyl]piperazine-1-carboxamide]	10 to 100 nM
N#Cc1cc(N2CCC(O)(C(=O)NCCC3CCN(Cc4ccccc4)CC3)CC2)ccc1F [10-51, N-[2-(1-benzylpiperidin-4-yl)ethyl]-1-(3-cyano-4-fluorophenyl)-4-hydroxypiperidine-4-carboxamide]	100 to 1000 nM
O=C(NC1CCN(c2ccc(OC(F)(F)F)cc2)CC1)OCCC1CCN(Cc2ccccc2)CC1 [12-11, 2-(1-benzylpiperidin-4-yl)ethyl N-{1-[4-(trifluoromethoxy)phenyl]piperidin-4-yl}carbamate]	10 to 100 nM
N-{2-[1-(3-methylbutyl)piperidin-4-yl]ethyl}-1-[4-(trifluoromethoxy)phenyl]piperidine-4-carboxamide [11-19]	100 to 1000 nM
C[C@@H]1CN(c2ncccn2)CCN1C(=O)NCCC1CCN(Cc2ccccc2)CC1 [4-64, (2R)-N-[2-(1-benzylpiperidin-4-yl)ethyl]-2-methyl-4-(pyrimidin-2-yl)piperazine-1-carboxamide]	100 to 1000 nM
O=C(NCCN[C@@H]1CCN(Cc2ccccc2)C1)C1CCN(c2ccc(OC(F)(F)F)c(F)c2)CC1 [9-28, N-(2-{[(3R)-1-benzylpyrrolidin-3-yl]amino}ethyl)-1-[3-fluoro-4-(trifluoromethoxy)phenyl]piperidine-4-carboxamide]	10 to 100 nM
C[C@@H]1CN(c2ncc(C#N)cc2F)C[C@H](C)N1C(=O)NCCC1CCN(Cc2ccccc2)CC1 [4-78, (2S,6R)-N-[2-(1-benzylpiperidin-4-yl)ethyl]-4-(5-cyano-3-fluoropyridin-2-yl)-2,6-dimethylpiperazine-1-carboxamide]	10 to 100 nM
